Results from US9109003B2, “Extraction method for Ilex kudingcha C. J. Tseng leaves, total saponins and use thereof” (Peking University, priority 2011, dated 2015).

Tested on: ApoE−/− mice
Test: Arteriosclerotic area of ApoE−/− mice aortic outflow tract
Format: in vivo
Settings: high fat diet, vs HG (p<0.01), atorvastatin 50 mg/kg/d, total saponins 300 mg/kg/d, 6 weeks
Text: ApoE−/− mice were divided into four groups randomly by weight.
(1) Negative control group (CG): mice in this group were fed normally for 7 weeks, and intragastrically administrated with normal saline.
(2) High fat control group (HG): mice in this group were fed with high fat diet containing 0.2% cholesterol for 7 weeks, and intragastrically administrated with normal saline every day simultaneously.
(4) I. kudingcha total saponin therapeutic group (SG): the course of treatment is similar to that of AG, with the only difference between SG and AG lies in that the dosage of the total saponins from I. kudingcha is 300 mg/kg/d.
Effect of total saponins from I. kudingcha leaves on arteriosclerotic area of ApoE−/− mice aortic outflow tract is shown in FIG. 7.

CC(C)c1c(C(=O)Nc2ccccc2)c(-c2ccccc2)c(-c2ccc(F)cc2)n1CC[C@@H](O)C[C@@H](O)CC(=O)O [atorvastatin]
inhibition rate of formation of atherosclerotic plaque of aortic outflow tract: about 40%
